PubChem BioAssay (NCI)
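Briefly, cells in 96-well plates were exposed to five compound concentrations for 48 h, and endpoints were estimated by linear interpolation. Here, GI50 denotes the concentration required for 50% inhibition of growth. The concentration for full growth arrest is given as TGI.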

Experiments:
Assay in all cases: growth of human tumour cells (NCI), 48 h
[1] = test system: DU-145 prostate
[2] = test system: OVCAR-5 ovarian
[3] = test system: KM12 colon
[4] = test system: ACHN renal
[5] = test system: K-562 leukemia
[6] = test system: UACC-257 melanoma
[7] = test system: A549 NSCLC
[8] = test system: SR leukemia
[9] = test system: M14 melanoma
[10] = test system: SF-539 CNS
[11] = test system: MCF7 breast
[12] = test system: BT-549 breast
[13] = test system: OVCAR-8 ovarian
[14] = test system: HS 578T breast
[15] = test system: NCI/ADR-RES ovarian
[16] = test system: T-47D breast
[17] = test system: HCT-15 colon
[18] = test system: MDA-MB-435
[19] = test system: SK-MEL-5 melanoma
[20] = test system: OVCAR-4 ovarian
[21] = test system: MALME-3M melanoma
[22] = test system: NCI-H522 lung
[23] = test system: SNB-75 CNS
[24] = test system: OVCAR-3 ovarian
[25] = test system: U251 CNS
[26] = test system: LOX IMVI melanoma
[27] = test system: SF-295 CNS
[28] = test system: TK-10 renal
[29] = test system: RPMI-8226 leukemia
[30] = test system: RXF 393 renal
[31] = test system: A498 renal
[32] = test system: HCC-2998 colon
[33] = test system: MDA-MB-468 breast
[34] = test system: HOP-62 NSCLC
[35] = test system: SW-620 colon
[36] = test system: NCI-H23 lung
[37] = test system: COLO 205 colon
[38] = test system: HT29 colon
[39] = test system: UO-31 renal
[40] = test system: SK-MEL-28 melanoma
[41] = test system: HCT-116 colon
[42] = test system: SF-268 CNS
[43] = test system: NCI-H460 lung
[44] = test system: SK-MEL-2 melanoma
[45] = test system: MOLT-4 leukemia
[46] = test system: EKVX NSCLC
[47] = test system: NCI-H226 lung
[48] = test system: MDA-MB-231 breast
[49] = test system: HL-60(TB) leukemia
[50] = test system: SK-OV-3 ovarian
[51] = test system: CAKI-1 renal
[52] = test system: PC-3 prostate
[53] = test system: CCRF-CEM leukemia
[54] = test system: UACC-62 melanoma
[55] = test system: SN12C renal
[56] = test system: 786-0 renal
[57] = test system: IGROV1 ovarian
[58] = test system: HOP-92 NSCLC
[59] = test system: SNB-19 CNS

CN1CCc2c(sc3ncnc(N/N=C/c4cccc(Cl)c4Cl)c23)C1
GI50 [1]: 8.34 µM
TGI [1]: > 24 µM
GI50 [2]: 8.14 µM
TGI [2]: > 24 µM
GI50 [3]: > 24 µM
TGI [3]: > 24 µM
GI50 [4]: 3.68 µM
TGI [4]: 7.89 µM
GI50 [5]: 4.42 µM
TGI [5]: 15.1 µM
GI50 [6]: > 24 µM
TGI [6]: > 24 µM
GI50 [7]: 7.79 µM
TGI [7]: > 24 µM
GI50 [8]: 3.54 µM
TGI [8]: > 24 µM
GI50 [9]: 12.8 µM
TGI [9]: > 24 µM
GI50 [10]: 3.83 µM
TGI [10]: 7.3 µM
GI50 [11]: 4.89 µM
TGI [11]: 17.6 µM
GI50 [12]: 4.13 µM
TGI [12]: > 24 µM
GI50 [13]: 5.81 µM
TGI [13]: 17.8 µM
GI50 [14]: 6.56 µM
TGI [14]: 22.9 µM
GI50 [15]: 4.76 µM
TGI [15]: 15.3 µM
GI50 [16]: 5.55 µM
TGI [16]: 18.3 µM
GI50 [17]: 4.76 µM
TGI [17]: 17.1 µM
GI50 [18]: 13.6 µM
TGI [18]: > 24 µM
GI50 [19]: 12.9 µM
TGI [19]: > 24 µM
GI50 [20]: 6.54 µM
TGI [20]: > 24 µM
GI50 [21]: 7.15 µM
TGI [21]: > 24 µM
GI50 [22]: 9.89 µM
TGI [22]: > 24 µM
GI50 [23]: 5.12 µM
TGI [23]: 21.4 µM
GI50 [24]: 4.77 µM
TGI [24]: 13.8 µM
GI50 [25]: 4.83 µM
TGI [25]: 10.8 µM
GI50 [26]: 3.52 µM
TGI [26]: 6.83 µM
GI50 [27]: 3.82 µM
TGI [27]: 8.23 µM
GI50 [28]: 5.5 µM
TGI [28]: 18.2 µM
GI50 [29]: 6.69 µM
TGI [29]: > 24 µM
GI50 [30]: 3.19 µM
TGI [30]: 12.3 µM
GI50 [31]: > 24 µM
TGI [31]: > 24 µM
GI50 [32]: 4.47 µM
TGI [32]: 10.7 µM
GI50 [33]: 3.19 µM
TGI [33]: 10.6 µM
GI50 [34]: 4.45 µM
TGI [34]: 10.7 µM
GI50 [35]: 7.79 µM
TGI [35]: > 24 µM
GI50 [36]: 5.24 µM
TGI [36]: 15.4 µM
GI50 [37]: 4.34 µM
TGI [37]: 9.78 µM
GI50 [38]: 4.16 µM
TGI [38]: 9.55 µM
GI50 [39]: 6.39 µM
TGI [39]: > 24 µM
GI50 [40]: 13.7 µM
TGI [40]: > 24 µM
GI50 [41]: 4.49 µM
TGI [41]: 11.2 µM
GI50 [42]: 10.7 µM
TGI [42]: > 24 µM
GI50 [43]: 7.54 µM
TGI [43]: > 24 µM
GI50 [44]: > 24 µM
TGI [44]: > 24 µM
GI50 [45]: 7.65 µM
TGI [45]: > 24 µM
GI50 [46]: 5.09 µM
TGI [46]: 17.6 µM
GI50 [47]: 11.6 µM
TGI [47]: > 24 µM
GI50 [48]: 3.88 µM
TGI [48]: 8.01 µM
GI50 [49]: 4.01 µM
TGI [49]: 10 µM
GI50 [50]: > 24 µM
TGI [50]: > 24 µM
GI50 [51]: 4.49 µM
TGI [51]: 11.4 µM
GI50 [52]: > 24 µM
TGI [52]: > 24 µM
GI50 [53]: 4.41 µM
TGI [53]: > 24 µM
GI50 [54]: > 24 µM
TGI [54]: > 24 µM
GI50 [55]: 5.58 µM
TGI [55]: 16.8 µM
GI50 [56]: 4.79 µM
TGI [56]: 10 µM
GI50 [57]: 5.68 µM
TGI [57]: 15.4 µM
GI50 [58]: 4.92 µM
TGI [58]: > 24 µM
GI50 [59]: 5.61 µM
TGI [59]: 18.2 µM
